In patent US20220409602A1, “DOPAMINE D3 RECEPTOR LIGANDS FOR TREATMENT OF DYSKINESIA” (TEXAS BIOMEDICAL RESEARCH INSTITUTE, priority 2021, published 2022):
Entries after “also recorded” stand apart in the source; their conditions may differ. Blank lines part the entries; values can stand above or below the compound they belong to.

Tests used:
Assay type in all cases: in vivo, marmoset
[1] = test system: Parkinsonian marmosets; assay: nocturnal activity and sleep analysis by actiwatch-mini; conditions: with levodopa 20 mg/kg
Description: (§1) For induction of dyskinesias, Levodopa (Sigma Aldrich) and carbidopa (Sigma Aldrich) at 1:1 were administered orally once daily for 5 days of a week. The drugs were mixed in either Ensure® pudding, cottage cheese, or marshmallows. […] Once the animals were acclimated to the drugs, the dose was increased to 20 mg/kg B.wt and continued for next 6 weeks.
(§2) The diurnal and nocturnal behavior of the marmosets was monitored using the actiwatch mini (Camntech, UK) as previously described. The device is an accelerometer that measures the intensity of the test subject's omnidirectional movements in units or counts that are directly proportional to the animal's activity. The device (2 cm in diameter) was placed on a collar around the neck of the marmoset. The animals were acclimatized to the collar in short sessions of 15 min followed by gradual increments of 30 min, 1 hr, 3 hrs, 6 hrs and 12 hrs. Once acclimatized, the actiwatch mini was attached to the collar and the activity-rest data was recorded for a period of 24 hours on 3 separate days of each treatment. The actiwatches were placed on animals at 8:30 AM and the devices were preset to start recording activity data from 9:00 AM. At 11:30 AM either the vehicle or the drugs were orally administered to the animals. The following day, the actiwatch was removed after 9:00 AM and the data was transferred to a computer through an actiwatch reader using the actiwatch activity and sleep analysis-7 software (Camntech, UK). For sleep analysis, the period of sustained quiescence (marmosets sleep cycle) starting at 7:00 PM in the evening to early morning 6:30 AM (approximately 11½ hrs) was analyzed using the sleep analysis-7 software to quantify the sleep quality and wakeful periods. The duration of sleep time was corrected for individual variations in the animal's behavior to fall asleep at different time of the evening, thereby keeping the period of sleep time analyzed same for all the animals. The analyzed data was then exported to Excel® and plotted using the Graph pad prism statistical software. To determine the change in activity after the administration of drugs, actiwatch data in 10-minute bins were exported using the actiwatch activity and sleep analysis-7 software and plotted in Graph Pad Prism.

[2] = test system: Parkinsonian marmosets; assay: motor activity recorded by actiwatch-mini during levodopa-induced dyskinesia; conditions: for motor activity / hyperactivity during peak-dose dyskinesia (actiwatch-mini): test drug 10 mg/kg with levodopa 20 mg/kg
Description: as §1, §2

[3] = test system: Parkinsonian marmosets with levodopa-induced dyskinesia; assay: levodopa-induced dyskinesia in MPTP Parkinsonian marmosets, dyskinesia rating scale; conditions: for expression of levodopa-induced dyskinesia: oral, with levodopa 20 mg/kg, test drug 10 mg/kg where stated
Description: (§3) Briefly, MPTP (Sigma Aldrich) (dissolved in physiological saline) at a concentration of 2 mg/ml was subcutaneously injected (2 mg/kg B.wt) for 5 consecutive days. After a wash out period of 72 hours from last MPTP injection, the marmosets were returned to their home cages and monitored twice daily for rest of the study period.
as §1
The severity of dyskinesia in the marmosets was categorized using a validated dyskinesia rating scale for NHPs. Dyskinesia was analyzed from 5-minute videos of the monkeys recorded at every 30 minutes on Tuesday, Wednesday and Thursday of each week. The videos were recorded between 9:30 AM-4:30 PM. Each day the vehicle or drugs were administered at 11:30 AM. The severity of dyskinesias was scored for different segments of the animal's body on a scale from 0 to 3, with 0=absent, 1=mild, 2=moderate, 3=severe. The body segments scored were: 1. Right upper limb dyskinesias (0-3); 2. Left upper limb dyskinesias (0-3); 3. Right lower limb dyskinesias (0-3); 4. left lower limb dyskinesias (0-3); 5. Trunk dyskinesias (0-3); 6, Head/facial dyskinesias (0-3). The severity of the rating was based on the frequency and amplitude of the abnormal movements. The total score is deducted from the six sub-scores to yield a dyskinesia score of 0 to 3: with 0=absent, 1=mild, manifesting by transient abnormal involuntary movements with choreic form, flicking of arms and limbs, increased running and hopping in the cages. […] 3=severe, characterized by a sustained dyskinesia manifesting with chorea and athetosis with sinuous writhing movements of the limbs, and dystonia with sustained extension of hind limbs and knees. The animals are unable to reach and grasp for treats (Video 1).

[4] = test system: Parkinsonian marmosets; assay: Parkinson's Disease Rating Scale (PDRS) in dyskinetic Parkinsonian marmosets
Description: as §3, with “All the animals (n=3) have been previously treated with MPTP as described in detail. Briefly,” for “Briefly,”
as §1
The severity of symptoms in the marmosets was categorized using a validated Parkinsonian rating scale for NHP. The PDRS correlates highly with striatal dopamine concentrations detected by postmortem immunohistopathology and it is modeled on the Unified Parkinson's Disease Rating Scale (UPDRS) and the Hoehn & Yahr scale used clinically to categorize PD patients. The PDRS was performed in daylight by video recording animals for 30 minutes. The evaluation was carried out biweekly before and after MPTP injections. The videos were scored by a blinded operator using PDRS, with a maximal disability score of 57 in the following manner: 0=normal, 1=mild, 2=moderate, 3=severe; rest tremor, action tremor, tremor of the head, tremor right arm, tremor left arm, freezing, locomotion, fine motor skills right hand, fine motor skills left hand, bradykinesia right arm, bradykinesia left arm, posture, hypokinesia, balance, posture, startle response, gross motor skills right hand and gross motor skills left hand, apathy (defined as a state of indifference), vocalization, drooling or frothing, tongue/face/lips. Independently of the PDRS, rigidity was assessed by evaluating the resistance to passive joint movements and the range of motion during reaching for food. […]

[5] = test system: Parkinsonian marmosets; assay: PD-like symptoms and object retrieval task with barrier detour; conditions: compared to control or SWR-3-73
Description: The PD-like symptoms evaluated included tremors, bradykinesia, and posture and general activity measured by an accelerometer device, the Actiwatch mini. In addition, motor and cognitive functions were measured using the object retrieval task with barrier detour.
The object retrieval task with a barrier detour is a reward based behavioral testing system that was previously described to evaluate motor and cognitive functions of NHP. Briefly, the task requires the test subject to retrieve a reward (marshmallow) fastened to a tray from the open side (bypassing the barrier) of a transparent box. […] All parameters measured were previously described in detail. […] The entire process was recorded using a video camera and the recordings were then analyzed and scored by a blinded experimenter. During each trial, the following responses were scored (1) ability of the animal to reach the front, left, or right side of the box, scored under the term “reach act”; (2) hand of choice for the reach, either left or right, scored under the term “hand used”; (3) the outcome of the reach, either success or failure, scored under result section.
Using the above parameters, additional variables were analyzed: 1) Motor problem: Reaching into the open side of the box but without retrieving the reward. […]

[6] = PD13R 0.1 to 10 mg/kg, SWR-3-73 and amantadine 10 mg/kg
[7] = levodopa 20 mg/kg acute challenge
[8] = first week of high dose levodopa/carbidopa 20 mg/kg
[9] = levodopa 20 mg/kg combined with vehicle

Compound: NC12CC3CC(CC(C3)C1)C2 [amantadine]
actual awake time during the assumed sleep period [1]: actual awake time was significantly increased
effect on sleep (overall) [1]: experienced abnormal irregular sleep and sleep disturbances
nocturnal activity [1, 6]: clear abnormal increase in nocturnal activity; also recorded: significant increase in nocturnal activity
sleep efficiency [1, 6]: significantly dropped; also recorded: decrease in sleep efficiency; also recorded: sleep efficiency significantly decreased
motor activity / hyperactivity during peak-dose dyskinesia (actiwatch-mini) [2]: inhibited the increased hyperactivity
motor activity / hyperactivity during peak-dose dyskinesia (actiwatch-mini) ([2]; listed as Amantadine): maintained the motor activity within the ON-period without dyskinesia
expression of levodopa-induced dyskinesia [3]: inhibited the expression of dyskinesia; also recorded: significantly inhibited the expression of dyskinesias

Parkinsonian symptoms (PDRS) ([4]; high doses of levodopa): worsened the Parkinsonian symptoms
time to cross the dyskinesia threshold after injection (motor activity) [2, 7]: ≤ 30 min
time to return to the ON-period without dyskinesia [2, 7]: approximately 145 minutes
duration of dyskinesia after dosing ([3]; 6th week of high dose levodopa 20 mg/kg): up to 4 hours
duration of abnormal involuntary movements [3, 8]: up to 180 minutes
time after dosing at which abnormal involuntary movements became visible [3, 8]: approximately 30 minutes
duration of the peak-dose period of dyskinesias [3, 9]: 2 h
time to reach the peak-dose period of dyskinesias after dosing [3, 9]: 30 min
highest dyskinesia disability score ([3]; levodopa 20 mg/kg combined with vehicle, scale 0 to 3): 3
Compound: N[C@@H](Cc1ccc(O)c(O)c1)C(=O)O [levodopa, L-3,4-dihydroxy-phenylalanine]
PDRS ([4]; physiological doses of levodopa): improved the PDRS

Compound: N#Cc1cccc(N2CCN(CCCCNC(=O)c3ccc(-c4ccsc4)cc3)CC2)c1 [PD13R]
Parkinson's Disease Rating Scale (PDRS) ([4]; PD13R 10 mg/kg with levodopa in dyskinetic marmosets): significantly improved the PDRS
hyperactivity during the peak-dose period (actograms) ([2]; PD13R 0.1 to 10 mg/kg with levodopa 20 mg/kg): dose-dependent and significant reduction in the hyperactivity
motor activity / hyperactivity during peak-dose dyskinesia (actiwatch-mini) [2]: motor activity remained within the therapeutic ON-period zone without dyskinesia; also recorded: maintained the motor activity within the ON-period without dyskinesia; also recorded: kept the motor activity within the ON-period; also recorded: inhibited the increased hyperactivity
PD-like symptoms and movement coordination [5]: clear improvement in all PD-like symptoms and movement coordination
reduction of the expression of dyskinesia in the peak-dose period ([3]; 10 mg/kg with levodopa 20 mg/kg): approximately 85%
anti-dyskinetic effects ([3]; PD13R 0.1 mg/kg with levodopa 20 mg/kg): no anti-dyskinetic effects were observed
time to reach peak-dose dyskinesia ([3]; PD13R 5 mg/kg with levodopa 20 mg/kg): 1 h
dose with optimal anti-dyskinetic outcome ([3]; dose range with levodopa 20 mg/kg): 10 mg/kg
expression of levodopa-induced dyskinesia [3]: inhibited the expression of levodopa-induced dyskinesia; also recorded: significantly suppresses the expression of levodopa-induced dyskinesia; also recorded: eliminates the expression of levodopa-induced dyskinesia; also recorded: eliminated the levodopa-induced dyskinesia; also recorded: significantly inhibited the expression of dyskinesias
